Results taken from PubChem BioAssay AID2060910 (Molecular Pharmacology Branch, DTP, NCI, 2025).

Test system: 242566-281-R-J2-PDC complex spheroid viability
Assay: Anticancer human tumor 242566-281-R-J2-PDC patient-derived pancreatic carcinoma cell line growth inhibition [RAS]
Settings: for viability, T/C: stronger effect = lower value; active means viability on the fitted dose curve at most 10% of control; inactive means the rest
Summary of the method: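 Multi-cell-type spheroids: tumor cells plus HUVEC endothelial cells and mesenchymal stem cells. RAS-pathway inhibitors were combined with targeted agents, each dosed in half-log steps down from clinical Cmax, or from 10 microM when Cmax was unknown.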
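Further: spheroids exposed to compound for 7 days before readout.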
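Wherever viability, T/C is given: 100% = DMSO vehicle control wells.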

Cc1nc(N2CCC3(CC2)COC(C)C3N)c(CO)nc1Sc1ccnc(N)c1Cl (centres undefined) + CCn1c(-c2cccnc2C(C)OC)c2c3cc(ccc31)N1CCOC(CC(NC(=O)C(C(C)C)N(C)C(=O)C3(F)CCN(C(=O)C#CC(C)(C)N(C)C)CC3)C(=O)N3CCCC(N3)C(=O)OCC(C)(C)C2)C1
> 10 µM: IC50 (curve of first compound, second compound 0.000949 µM) | IC50 (curve of first compound, second compound 0.003 µM) | IC50 (curve of first compound, second compound 0.00949 µM) | IC50 (curve of first compound, second compound 0.03 µM) | IC50 (curve of first compound, second compound 0.0949 µM) | IC50 (curve of first compound, second compound 0.3 µM)
inactive: viability, T/C (second compound 0.000949 µM, first compound 0.0316 µM) 94.9% | viability, T/C (second compound 0.000949 µM, first compound 0.1 µM) 93.2% | viability, T/C (second compound 0.000949 µM, first compound 0.316 µM) 63.1% | viability, T/C (second compound 0.000949 µM, first compound 1 µM) 77.4% | viability, T/C (second compound 0.000949 µM, first compound 3.16 µM) 71.5% | viability, T/C (second compound 0.000949 µM, first compound 10 µM) 53.4% | viability, T/C (second compound 0.003 µM, first compound 0.0316 µM) 102% | viability, T/C (second compound 0.003 µM, first compound 0.1 µM) 80% | viability, T/C (second compound 0.003 µM, first compound 0.316 µM) 80% | viability, T/C (second compound 0.003 µM, first compound 1 µM) 81.5% | viability, T/C (second compound 0.003 µM, first compound 3.16 µM) 74% | viability, T/C (second compound 0.003 µM, first compound 10 µM) 52.8% | viability, T/C (second compound 0.00949 µM, first compound 0.0316 µM) 98.8% | viability, T/C (second compound 0.00949 µM, first compound 0.1 µM) 73.4% | viability, T/C (second compound 0.00949 µM, first compound 0.316 µM) 67.3% | viability, T/C (second compound 0.00949 µM, first compound 1 µM) 71% | viability, T/C (second compound 0.00949 µM, first compound 3.16 µM) 67.1% | viability, T/C (second compound 0.00949 µM, first compound 10 µM) 68.6% | viability, T/C (second compound 0.03 µM, first compound 0.0316 µM) 97.6% | viability, T/C (second compound 0.03 µM, first compound 0.1 µM) 85.5% | viability, T/C (second compound 0.03 µM, first compound 0.316 µM) 82% | viability, T/C (second compound 0.03 µM, first compound 1 µM) 73.7% | viability, T/C (second compound 0.03 µM, first compound 3.16 µM) 60.7% | viability, T/C (second compound 0.03 µM, first compound 10 µM) 61.6% | viability, T/C (second compound 0.0949 µM, first compound 0.0316 µM) 75.1% | viability, T/C (second compound 0.0949 µM, first compound 0.1 µM) 77.3% | viability, T/C (second compound 0.0949 µM, first compound 0.316 µM) 79.7% | viability, T/C (second compound 0.0949 µM, first compound 1 µM) 71.1% | viability, T/C (second compound 0.0949 µM, first compound 3.16 µM) 54.3% | viability, T/C (second compound 0.0949 µM, first compound 10 µM) 61.9% | viability, T/C (second compound 0.3 µM, first compound 0.0316 µM) 73.7% | viability, T/C (second compound 0.3 µM, first compound 0.1 µM) 72.8% | viability, T/C (second compound 0.3 µM, first compound 0.316 µM) 61.5% | viability, T/C (second compound 0.3 µM, first compound 1 µM) 50.5% | viability, T/C (second compound 0.3 µM, first compound 3.16 µM) 49.9% | viability, T/C (second compound 0.3 µM, first compound 10 µM) 51.5%

C=CC(=O)N1CCN(c2nc(OCC3CCCN3C)nc3c(F)c(-c4nc(N)cc(C)c4C(F)(F)F)c(Cl)cc23)C(C)C1 (centres undefined)
> 1 µM: IC50 (compound alone, run of 07/15/2024) | IC50 (curve of compound)
inactive: viability, T/C (compound 0.00316 µM) 102% [middle of 12 runs] | viability, T/C (compound 0.0316 µM) 99.2% [middle of 12 runs] | viability, T/C (compound 0.1 µM) 100% [middle of 12 runs]

C[C@@H](NC(=O)c1ncnc(N)c1Cl)c1ncc(C(=O)Nc2cc(C(F)(F)F)c(Cl)cn2)s1 + C=CC(=O)N1CCN(c2nc(OCC3CCCN3C)nc3c(F)c(-c4nc(N)cc(C)c4C(F)(F)F)c(Cl)cc23)C(C)C1
inactive: viability, T/C (second compound 0.00316 µM, first compound 0.0316 µM) 111% | viability, T/C (second compound 0.00316 µM, first compound 0.1 µM) 142% | viability, T/C (second compound 0.00316 µM, first compound 0.316 µM) 111% | viability, T/C (second compound 0.00316 µM, first compound 1 µM) 106% | viability, T/C (second compound 0.00316 µM, first compound 3.16 µM) 110% | viability, T/C (second compound 0.00316 µM, first compound 10 µM) 126% | viability, T/C (second compound 0.01 µM, first compound 0.0316 µM) 112% | viability, T/C (second compound 0.01 µM, first compound 0.1 µM) 148% | viability, T/C (second compound 0.01 µM, first compound 0.316 µM) 113% | viability, T/C (second compound 0.01 µM, first compound 1 µM) 105% | viability, T/C (second compound 0.01 µM, first compound 3.16 µM) 105% | viability, T/C (second compound 0.01 µM, first compound 10 µM) 122% | viability, T/C (second compound 0.0316 µM, first compound 0.0316 µM) 125% | viability, T/C (second compound 0.0316 µM, first compound 0.1 µM) 124% | viability, T/C (second compound 0.0316 µM, first compound 0.316 µM) 115% | viability, T/C (second compound 0.0316 µM, first compound 1 µM) 123% | viability, T/C (second compound 0.0316 µM, first compound 3.16 µM) 97.1% | viability, T/C (second compound 0.0316 µM, first compound 10 µM) 118% | viability, T/C (second compound 0.1 µM, first compound 0.0316 µM) 122% | viability, T/C (second compound 0.1 µM, first compound 0.1 µM) 153% | viability, T/C (second compound 0.1 µM, first compound 0.316 µM) 107% | viability, T/C (second compound 0.1 µM, first compound 1 µM) 113% | viability, T/C (second compound 0.1 µM, first compound 3.16 µM) 106% | viability, T/C (second compound 0.1 µM, first compound 10 µM) 109% | viability, T/C (second compound 0.316 µM, first compound 0.0316 µM) 107% | viability, T/C (second compound 0.316 µM, first compound 0.1 µM) 124% | viability, T/C (second compound 0.316 µM, first compound 0.316 µM) 122% | viability, T/C (second compound 0.316 µM, first compound 1 µM) 112% | viability, T/C (second compound 0.316 µM, first compound 3.16 µM) 110% | viability, T/C (second compound 0.316 µM, first compound 10 µM) 124% | viability, T/C (second compound 1 µM, first compound 0.0316 µM) 111% | viability, T/C (second compound 1 µM, first compound 0.1 µM) 124% | viability, T/C (second compound 1 µM, first compound 0.316 µM) 119% | viability, T/C (second compound 1 µM, first compound 1 µM) 103% | viability, T/C (second compound 1 µM, first compound 3.16 µM) 117% | viability, T/C (second compound 1 µM, first compound 10 µM) 106%
> 10 µM: IC50 (curve of first compound, second compound 0.00316 µM) | IC50 (curve of first compound, second compound 0.01 µM) | IC50 (curve of first compound, second compound 0.0316 µM) | IC50 (curve of first compound, second compound 0.1 µM) | IC50 (curve of first compound, second compound 0.316 µM) | IC50 (curve of first compound, second compound 1 µM)
